Data: article PMC8213057, “Targeting ALK2: An Open Science Approach to Developing Therapeutics for the Treatment of Diffuse Intrinsic Pontine Glioma” (Journal of Medicinal Chemistry, 2020)
“And” between values parts separate entries of the source, which are not always exact repeats. Identical values can stand only once.

Tests used:
DAPK1 = DAPK1 (Homo sapiens, UniProt P53355); settings: 1 μM; Run 1, Run 2
TLK1 = target: T1, TLK1 (Homo sapiens, UniProt Q9UKI8); experiment: biochemical; settings: read-out: % enzyme activity, 1 μM; Run 1, Run 2
T1 sequence (Q9UKI8 1-766): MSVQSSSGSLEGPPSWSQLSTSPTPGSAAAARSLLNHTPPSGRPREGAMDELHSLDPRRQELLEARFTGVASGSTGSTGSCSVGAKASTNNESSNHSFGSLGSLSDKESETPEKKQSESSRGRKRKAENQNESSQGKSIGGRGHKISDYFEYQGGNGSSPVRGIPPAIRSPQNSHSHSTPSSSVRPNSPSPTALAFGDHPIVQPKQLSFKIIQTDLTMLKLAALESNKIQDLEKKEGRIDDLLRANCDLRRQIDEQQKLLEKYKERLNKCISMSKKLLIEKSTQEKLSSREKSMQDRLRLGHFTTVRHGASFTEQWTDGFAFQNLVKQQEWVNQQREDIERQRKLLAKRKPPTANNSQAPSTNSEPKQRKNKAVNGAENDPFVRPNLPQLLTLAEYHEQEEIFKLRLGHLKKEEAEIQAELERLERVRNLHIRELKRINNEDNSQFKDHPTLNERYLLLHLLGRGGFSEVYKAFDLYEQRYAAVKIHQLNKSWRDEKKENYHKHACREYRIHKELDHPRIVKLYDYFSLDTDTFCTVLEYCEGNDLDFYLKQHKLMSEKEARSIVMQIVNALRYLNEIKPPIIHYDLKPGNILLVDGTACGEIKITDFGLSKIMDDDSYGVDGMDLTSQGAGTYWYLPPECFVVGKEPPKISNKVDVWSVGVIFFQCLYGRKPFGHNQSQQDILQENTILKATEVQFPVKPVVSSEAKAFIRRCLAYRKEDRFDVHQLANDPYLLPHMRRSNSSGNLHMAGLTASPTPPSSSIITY

PLK1 = PLK1 (Homo sapiens, UniProt P53350); experiment: biochemical; settings: read-out: % enzyme activity, 1 μM; Run 1, Run 2
MRCKa/CDC42BPA = MRCKa/CDC42BPA (Homo sapiens, UniProt Q5VT25); settings: 1 μM; Run 1, Run 2
CLK3 = CLK3 (Homo sapiens, UniProt P49761); experiment: biochemical; settings: read-out: % enzyme activity, 1 μM; Run 1, Run 2
RON/MST1R = RON/MST1R (Homo sapiens, UniProt Q04912); settings: 1 μM; Run 1, Run 2
AKT1 = AKT1 (Homo sapiens, UniProt P31749); experiment: biochemical; settings: read-out: % enzyme activity, 1 μM; Run 1, Run 2
GLK/MAP4K3 = target: T2, GLK/MAP4K3 (Homo sapiens, UniProt Q8IVH8); settings: 1 μM; Run 1, Run 2
T2 sequence (Q8IVH8 1-894): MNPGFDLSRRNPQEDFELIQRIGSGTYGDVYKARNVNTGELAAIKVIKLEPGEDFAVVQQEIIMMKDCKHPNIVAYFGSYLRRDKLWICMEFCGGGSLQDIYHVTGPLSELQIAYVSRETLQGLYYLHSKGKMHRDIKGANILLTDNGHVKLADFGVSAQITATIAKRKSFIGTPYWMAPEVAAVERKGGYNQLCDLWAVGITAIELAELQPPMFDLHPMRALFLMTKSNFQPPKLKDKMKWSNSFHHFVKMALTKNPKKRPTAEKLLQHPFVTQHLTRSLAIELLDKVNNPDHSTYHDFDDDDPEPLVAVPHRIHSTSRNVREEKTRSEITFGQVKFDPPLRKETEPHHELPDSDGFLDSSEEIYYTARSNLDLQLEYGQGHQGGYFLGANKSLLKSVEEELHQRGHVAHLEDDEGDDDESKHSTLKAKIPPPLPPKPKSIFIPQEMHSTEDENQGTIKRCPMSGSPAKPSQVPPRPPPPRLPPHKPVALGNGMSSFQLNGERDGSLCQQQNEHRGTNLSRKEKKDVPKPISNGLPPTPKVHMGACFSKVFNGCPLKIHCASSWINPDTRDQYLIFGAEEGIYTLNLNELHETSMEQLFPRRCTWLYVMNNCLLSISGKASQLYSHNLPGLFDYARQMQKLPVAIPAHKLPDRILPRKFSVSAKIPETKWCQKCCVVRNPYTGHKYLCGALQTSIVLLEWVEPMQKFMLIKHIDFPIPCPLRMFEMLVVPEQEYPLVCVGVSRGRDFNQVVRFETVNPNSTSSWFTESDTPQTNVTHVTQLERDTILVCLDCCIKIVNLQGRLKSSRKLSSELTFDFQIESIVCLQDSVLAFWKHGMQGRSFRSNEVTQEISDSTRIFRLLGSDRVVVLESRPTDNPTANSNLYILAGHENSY

PKN2/PRK2 = PKN2/PRK2 (Homo sapiens, UniProt Q16513); settings: 1 μM; Run 1, Run 2
PRKX = target: T3, PRKX (Homo sapiens, UniProt P51817); settings: 1 μM; Run 1, Run 2
T3 sequence (P51817 1-358): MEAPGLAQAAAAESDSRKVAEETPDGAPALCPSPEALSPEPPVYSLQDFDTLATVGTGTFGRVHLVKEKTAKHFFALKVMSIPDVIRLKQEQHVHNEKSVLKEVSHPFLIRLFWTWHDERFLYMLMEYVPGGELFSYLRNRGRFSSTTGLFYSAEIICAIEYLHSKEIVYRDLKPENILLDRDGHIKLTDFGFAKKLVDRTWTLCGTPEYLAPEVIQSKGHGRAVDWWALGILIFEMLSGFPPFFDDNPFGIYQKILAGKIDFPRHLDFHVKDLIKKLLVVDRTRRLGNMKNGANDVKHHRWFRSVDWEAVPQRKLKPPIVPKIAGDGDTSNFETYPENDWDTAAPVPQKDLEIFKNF

MYO3A = MYO3A (Homo sapiens, UniProt Q8NEV4); experiment: biochemical; settings: read-out: % enzyme activity, 1 μM; Run 1, Run 2

Sequence of MRCKa/CDC42BPA (Q5VT25 whole entry): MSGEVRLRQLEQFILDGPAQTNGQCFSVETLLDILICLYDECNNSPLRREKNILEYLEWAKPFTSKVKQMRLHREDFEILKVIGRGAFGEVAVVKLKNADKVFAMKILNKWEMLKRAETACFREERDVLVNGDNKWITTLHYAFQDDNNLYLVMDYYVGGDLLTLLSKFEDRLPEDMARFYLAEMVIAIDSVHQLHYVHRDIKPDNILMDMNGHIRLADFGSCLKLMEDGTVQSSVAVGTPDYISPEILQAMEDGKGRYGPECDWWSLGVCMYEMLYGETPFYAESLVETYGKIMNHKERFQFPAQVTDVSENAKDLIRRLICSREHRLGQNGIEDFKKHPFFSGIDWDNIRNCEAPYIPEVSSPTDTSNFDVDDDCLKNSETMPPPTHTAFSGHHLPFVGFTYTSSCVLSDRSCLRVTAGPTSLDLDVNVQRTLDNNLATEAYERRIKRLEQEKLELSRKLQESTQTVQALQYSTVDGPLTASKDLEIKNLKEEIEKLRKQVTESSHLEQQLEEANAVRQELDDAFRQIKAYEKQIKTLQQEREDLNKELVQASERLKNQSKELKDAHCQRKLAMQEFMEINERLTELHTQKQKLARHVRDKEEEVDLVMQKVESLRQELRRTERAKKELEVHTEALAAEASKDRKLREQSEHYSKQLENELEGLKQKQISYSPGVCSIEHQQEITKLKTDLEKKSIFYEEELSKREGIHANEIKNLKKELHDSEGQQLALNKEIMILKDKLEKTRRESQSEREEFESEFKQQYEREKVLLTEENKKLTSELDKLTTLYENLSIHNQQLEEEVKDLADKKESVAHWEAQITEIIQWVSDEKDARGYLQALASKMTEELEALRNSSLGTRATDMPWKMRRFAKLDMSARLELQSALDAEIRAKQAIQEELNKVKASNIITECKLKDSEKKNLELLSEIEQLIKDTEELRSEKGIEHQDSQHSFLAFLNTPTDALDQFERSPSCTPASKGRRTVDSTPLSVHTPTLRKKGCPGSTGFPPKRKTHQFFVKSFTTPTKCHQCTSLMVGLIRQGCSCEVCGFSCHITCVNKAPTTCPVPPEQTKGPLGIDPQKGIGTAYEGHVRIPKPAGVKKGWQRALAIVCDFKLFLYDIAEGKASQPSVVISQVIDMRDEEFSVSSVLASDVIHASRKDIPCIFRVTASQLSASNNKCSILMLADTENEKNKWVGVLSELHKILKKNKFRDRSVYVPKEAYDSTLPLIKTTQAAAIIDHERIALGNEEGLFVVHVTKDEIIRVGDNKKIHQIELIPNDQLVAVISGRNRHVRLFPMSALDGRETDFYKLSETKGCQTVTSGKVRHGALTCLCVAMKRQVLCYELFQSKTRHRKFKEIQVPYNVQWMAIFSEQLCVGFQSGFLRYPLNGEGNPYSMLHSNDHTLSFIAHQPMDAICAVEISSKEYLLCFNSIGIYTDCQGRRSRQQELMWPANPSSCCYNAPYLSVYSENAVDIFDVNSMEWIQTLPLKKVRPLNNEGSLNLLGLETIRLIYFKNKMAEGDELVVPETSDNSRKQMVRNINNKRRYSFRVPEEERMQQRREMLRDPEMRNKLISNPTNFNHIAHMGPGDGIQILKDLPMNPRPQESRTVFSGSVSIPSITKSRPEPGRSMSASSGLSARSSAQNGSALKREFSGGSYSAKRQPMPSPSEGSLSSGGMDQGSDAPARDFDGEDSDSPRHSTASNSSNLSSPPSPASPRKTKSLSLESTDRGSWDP
Sequence of RON/MST1R (Q04912 25-1400): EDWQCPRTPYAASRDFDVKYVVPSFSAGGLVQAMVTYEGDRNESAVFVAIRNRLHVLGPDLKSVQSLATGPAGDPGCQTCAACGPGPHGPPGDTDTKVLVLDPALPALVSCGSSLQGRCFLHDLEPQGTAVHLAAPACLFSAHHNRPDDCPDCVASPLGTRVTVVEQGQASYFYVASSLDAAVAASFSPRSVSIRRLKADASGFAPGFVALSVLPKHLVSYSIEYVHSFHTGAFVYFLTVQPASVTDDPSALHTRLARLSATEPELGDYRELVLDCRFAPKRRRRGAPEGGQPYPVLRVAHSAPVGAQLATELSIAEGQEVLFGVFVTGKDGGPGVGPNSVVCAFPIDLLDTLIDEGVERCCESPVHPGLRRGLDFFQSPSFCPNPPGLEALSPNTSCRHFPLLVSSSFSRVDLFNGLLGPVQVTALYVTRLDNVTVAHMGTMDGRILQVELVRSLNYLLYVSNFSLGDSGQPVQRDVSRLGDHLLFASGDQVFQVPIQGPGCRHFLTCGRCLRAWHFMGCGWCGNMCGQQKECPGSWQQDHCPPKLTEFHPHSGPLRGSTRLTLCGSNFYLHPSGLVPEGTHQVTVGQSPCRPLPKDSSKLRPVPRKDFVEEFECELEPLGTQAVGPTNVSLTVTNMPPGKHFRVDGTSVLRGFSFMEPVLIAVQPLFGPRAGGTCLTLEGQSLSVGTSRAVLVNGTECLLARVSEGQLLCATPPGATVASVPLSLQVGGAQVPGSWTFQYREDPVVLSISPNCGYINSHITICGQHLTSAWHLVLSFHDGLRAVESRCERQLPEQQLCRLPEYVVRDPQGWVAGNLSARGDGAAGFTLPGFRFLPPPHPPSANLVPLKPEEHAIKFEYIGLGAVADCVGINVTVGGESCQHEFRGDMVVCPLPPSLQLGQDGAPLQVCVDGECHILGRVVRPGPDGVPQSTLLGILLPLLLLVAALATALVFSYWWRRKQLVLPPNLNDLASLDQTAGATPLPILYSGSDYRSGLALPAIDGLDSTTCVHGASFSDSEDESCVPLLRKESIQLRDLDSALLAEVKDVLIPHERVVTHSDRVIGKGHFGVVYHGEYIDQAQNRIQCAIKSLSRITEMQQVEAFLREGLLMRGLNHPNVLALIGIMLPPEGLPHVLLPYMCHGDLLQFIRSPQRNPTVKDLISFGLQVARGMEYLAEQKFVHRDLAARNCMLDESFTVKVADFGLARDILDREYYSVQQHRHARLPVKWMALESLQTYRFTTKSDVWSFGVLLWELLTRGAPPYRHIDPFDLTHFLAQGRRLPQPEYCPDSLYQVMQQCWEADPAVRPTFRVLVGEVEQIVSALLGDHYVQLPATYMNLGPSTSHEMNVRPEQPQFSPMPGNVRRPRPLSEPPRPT
Sequence of CLK3 (P49761 whole entry): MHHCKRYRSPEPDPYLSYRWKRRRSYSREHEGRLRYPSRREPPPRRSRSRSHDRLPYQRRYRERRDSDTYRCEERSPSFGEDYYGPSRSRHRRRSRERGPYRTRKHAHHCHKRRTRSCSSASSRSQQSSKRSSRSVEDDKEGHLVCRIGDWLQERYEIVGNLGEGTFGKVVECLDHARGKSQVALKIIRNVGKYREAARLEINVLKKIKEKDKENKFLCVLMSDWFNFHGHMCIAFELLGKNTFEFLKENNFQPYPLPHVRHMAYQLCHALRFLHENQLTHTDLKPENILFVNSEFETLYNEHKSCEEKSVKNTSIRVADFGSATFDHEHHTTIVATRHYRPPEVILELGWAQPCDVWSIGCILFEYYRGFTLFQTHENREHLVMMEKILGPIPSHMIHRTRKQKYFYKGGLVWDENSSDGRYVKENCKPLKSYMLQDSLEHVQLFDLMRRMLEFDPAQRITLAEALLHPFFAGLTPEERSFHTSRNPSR
Sequence of DAPK1 (P53355 whole entry): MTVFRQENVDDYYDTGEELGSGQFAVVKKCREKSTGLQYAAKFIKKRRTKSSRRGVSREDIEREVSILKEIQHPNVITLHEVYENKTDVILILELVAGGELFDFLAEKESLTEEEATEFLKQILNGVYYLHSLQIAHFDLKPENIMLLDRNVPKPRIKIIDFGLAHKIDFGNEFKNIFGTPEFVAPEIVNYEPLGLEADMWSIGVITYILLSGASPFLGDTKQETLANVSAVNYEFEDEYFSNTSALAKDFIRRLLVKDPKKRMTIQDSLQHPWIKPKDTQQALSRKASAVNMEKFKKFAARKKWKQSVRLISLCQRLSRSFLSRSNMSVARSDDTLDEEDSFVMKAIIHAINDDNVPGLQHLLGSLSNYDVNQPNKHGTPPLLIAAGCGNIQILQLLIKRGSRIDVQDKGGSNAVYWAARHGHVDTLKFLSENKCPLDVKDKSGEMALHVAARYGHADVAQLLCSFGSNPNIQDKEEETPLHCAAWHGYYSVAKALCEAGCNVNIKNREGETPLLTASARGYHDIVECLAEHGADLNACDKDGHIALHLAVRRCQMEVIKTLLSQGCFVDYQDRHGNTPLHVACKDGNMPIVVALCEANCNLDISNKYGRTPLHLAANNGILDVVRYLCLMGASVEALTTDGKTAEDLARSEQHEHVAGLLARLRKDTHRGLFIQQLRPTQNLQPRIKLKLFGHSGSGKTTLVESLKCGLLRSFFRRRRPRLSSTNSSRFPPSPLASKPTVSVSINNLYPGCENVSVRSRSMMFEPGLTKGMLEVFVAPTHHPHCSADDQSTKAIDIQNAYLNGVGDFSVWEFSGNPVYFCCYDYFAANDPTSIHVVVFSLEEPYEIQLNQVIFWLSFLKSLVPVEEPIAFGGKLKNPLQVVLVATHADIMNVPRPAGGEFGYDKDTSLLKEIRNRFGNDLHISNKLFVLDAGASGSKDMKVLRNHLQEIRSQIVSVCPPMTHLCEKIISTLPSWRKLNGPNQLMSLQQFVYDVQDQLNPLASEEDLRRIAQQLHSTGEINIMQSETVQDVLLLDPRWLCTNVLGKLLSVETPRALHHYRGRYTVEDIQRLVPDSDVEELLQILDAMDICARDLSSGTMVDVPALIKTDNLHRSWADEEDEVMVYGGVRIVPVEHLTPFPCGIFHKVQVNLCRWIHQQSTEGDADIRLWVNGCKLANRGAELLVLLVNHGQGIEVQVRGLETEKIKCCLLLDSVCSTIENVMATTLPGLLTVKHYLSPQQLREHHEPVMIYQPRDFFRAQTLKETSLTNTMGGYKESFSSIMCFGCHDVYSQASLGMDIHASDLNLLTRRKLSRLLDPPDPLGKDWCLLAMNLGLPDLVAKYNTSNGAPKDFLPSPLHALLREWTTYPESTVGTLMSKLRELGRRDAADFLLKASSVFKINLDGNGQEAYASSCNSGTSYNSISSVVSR

Row | SMILES | % enzyme activity at 1 μM (ALK2/ACVR1) | % enzyme activity (DAPK1) [%] | remaining activity at 1 µM (TLK1) [%] | remaining activity at 1 µM (PLK1) [%] | % enzyme activity (MRCKa/CDC42BPA) [%] | remaining activity at 1 µM (CLK3) [%] | % enzyme activity (RON/MST1R) [%] | remaining activity at 1 µM (AKT1) [%] | % enzyme activity (GLK/MAP4K3) [%] | % enzyme activity (PKN2/PRK2) [%] | % enzyme activity (PRKX) [%] | remaining activity at 1 µM (MYO3A) [%]
1 | COc1cc(-c2cncc(-c3ccc(N4CCN(C)CC4)cc3)c2C)cc(F)c1C(N)=O [Compound 26a, 2-Fluoro-6-methoxy-4-(4-methyl-5-(4-(4-methylpiperazin-1-yl)phenyl)pyridin-3-yl)benzamide] | 9.92% and 8.63% | 94.56 | 108 | 92.4 | 102.07 | 103 | 97.00 | 106 | 88.16 | 91.84 | 99.24 | 84
2 | COc1cc(-c2cncc(-c3ccc(N4C[C@@H](C)N(C)[C@@H](C)C4)cc3)c2C)cc(F)c1C(N)=O [Compound 26c, 2-Fluoro-6-methoxy-4-(4-methyl-5-(4-((3R,5S)-3,4,5-trimethylpiperazin-1-yl)phenyl)pyridin-3-yl)benzamide] | 13.7% and 11.7% | 96.25 | 104 | 92.7 | 104.72 | 88.3 | 104.29 | 105 | 88.71 | 95.77 | 90.55 | 94.7
